# Where “and” joins values, the source holds several entries; their conditions need not be identical. Identical values can stand only once. Entries after “also recorded” stand apart in the source; their conditions may differ.
# Key:
# [1] = tested on: acetylcholine-mediated AF; experiment: AF cardioversion in canine acetylcholine-mediated AF model (isolated coronary-perfused right atrial preparations); details: for AF cardioversion (atria cardioverted / tested): flecainide 1.5 μM
# Method: This investigation conforms with the Guide for Care and Use of Laboratory Animals. Hearts from purpose-bred adult male Beagle dogs (10-16 kg, 10-19 months old) were obtained from Envigo (Denver, PA). Dogs were sedated with ketamine (10 mg/kg, intramuscularly [IM]) and xylazine (2 mg/kg, IM). Prior to euthanasia with Euthasol solution (pentobarbital sodium and phenytoin sodium; 0.22 ml/kg, intravenously [IV]), heparin (human pharmaceutical grade, 1,000 U/kg, IV) was administered. The heart was then isolated via a left thoracotomy. Retrograde aortic perfusion of the hearts with ice-cold cardioplegic solution (modified Krebs-Henseleit solution [K-H]; 16 mM KCl) was immediately performed to clear the coronary vasculature of blood. The hearts were then placed in a sealed container containing ice-cold cardioplegic solution and transported to our institution via a private courier in an insulated package surrounded by icepacks.
# (§1) Experiments were performed using isolated arterially-perfused canine preparations perfused with Tyrode's solution containing (in mM): NaCl 129, KCl 4, NaH2PO4 0.9, NaHCO3 20, CaCl2 1.8, MgSO4 0.5, glucose 5.5, insulin lunit/liter, bubelled with 95% O2 and 5% CO2. pH=7.4. Preparations consisting of the right atrium with a rim of right ventricle (1.0-2.0 cm) were isolated from the canine hearts (FIG. 1). The ostium of the right coronary artery was cannulated with polyethylene tubing, and the preparations were perfused with cold Tyrode's solution (8°-12° C.) containing 8.5 [K^+]0. With continuous coronary perfusion, all ventricular branches of the right coronary artery were immediately clamped with metal clips (1.5×10 mm; Kent Scientific Corp., Torrington, CT). The total time from excision of the heart to cannulation and perfusion of the artery was 4 minutes. […] coronary branches were ligated using silk thread. The preparations were placed in a temperature-controlled bath (8×6×4 cm) and perfused at a rate of 10-15 mL/min using Tyrode's solution. The temperature was maintained at 37° C.±0.5° C. (PolyStat; Cole Parmer Instrument, IL). The perfusate was delivered to the artery by a roller pump (MasterFlex L/S, Cole Parmer Instrument). An air trap was used to avoid bubbles in the perfusion line.
# A well-established acetylcholine (ACh)-mediated non-self-terminating (persistent) AF experimental model was used in the current study.^4 AF was induced by either delivering a single premature stimulus or by rapid pacing (CLs=40-80 ms, for 2-5 seconds). The efficacy and time course for flecainide to cardiovert AF (induced at 4 mM potassium) was studied at 4 mM (baseline) and at 5, 6, and 8 mM of potassium concentration ([K^+]0). Sustained AF (here defined as lasting >1 hour) was induced in 100% experiments in the presence of 4 mM [K^+]. 5-7 minutes after non-self-terminating AF was first introduced at 4 mM [K^+]0, flecainide was added to the Tyrode's perfusate containing either 4 mM [K^+]0 or with a concomitant increase in potassium concentration (to 5, 6, or 8 mM).
# Additionally, the capability of elevated potassium (5, 6, and 8 mM) alone to terminate AF was investigated. In these experiments, sustained AF was first induced at 4 mM [K^+]0 and 5-7 minutes later potassium concentrations were increased (to 5, 6, or 8 mM). To mimic hypokalemia, AF termination efficacy of flecainide was tested at 3 mM [K^+]0. If AF was not terminated by the tested conditions in 45 minutes, the AF was considered as “non-terminating”. In the experiments in which AF was cardioverted by tested conditions tested, electrical re-induction of AF was attempted within 1-5 minutes after AF termination (≥5 attempts in ≥2 atrial locations).
# Overall, 41 right atrioventricular preparations isolated from 41 canine hearts were used in the study, with 46 experiments investigating AF cardioversion and 11 experiments investigating electrophysiological parameters in atria and ventricles. […]
# [2] = tested on: acetylcholine-mediated AF; experiment: Electrical re-induction of AF after AF termination in isolated canine right atrial preparations
# Method: A well-established acetylcholine (ACh)-mediated non-self-terminating (persistent) AF experimental model was used in the current study.^4 AF was induced by either delivering a single premature stimulus or by rapid pacing (CLs=40-80 ms, for 2-5 seconds). The efficacy and time course for flecainide to cardiovert AF (induced at 4 mM potassium) was studied at 4 mM (baseline) and at 5, 6, and 8 mM of potassium concentration ([K^+]0). Sustained AF (here defined as lasting >1 hour) was induced in 100% experiments in the presence of 4 mM [K^+]. 5-7 minutes after non-self-terminating AF was first introduced at 4 mM [K^+]0, flecainide was added to the Tyrode's perfusate containing either 4 mM [K^+]0 or with a concomitant increase in potassium concentration (to 5, 6, or 8 mM). Additionally, the capability of elevated potassium (5, 6, and 8 mM) alone to terminate AF was investigated. In these experiments, sustained AF was first induced at 4 mM [K^+]0 and 5-7 minutes later potassium concentrations were increased (to 5, 6, or 8 mM). To mimic hypokalemia, AF termination efficacy of flecainide was tested at 3 mM [K^+]0. If AF was not terminated by the tested conditions in 45 minutes, the AF was considered as “non-terminating”. In the experiments in which AF was cardioverted by tested conditions tested, electrical re-induction of AF was attempted within 1-5 minutes after AF termination (≥5 attempts in ≥2 atrial locations).
# atria = experiment: Electrophysiological parameters (APD, ERP, PRR, DTE) in atria of isolated arterially-perfused canine preparations
# Method: as §1
# (§2) Transmembrane action potential (AP) recordings (sampling rate 41 kHz) were obtained from the right atrium and ventricle using floating glass microelectrodes (10-25 MΩ DC resistance). Glass microelectrodes were connected to a high-input impedance intracellular amplifier (Electro-705; World Precision Instruments, Sarasota, FL). A pseudo-electrocardiogram (ECG) was recorded using two electrodes consisting of Ag/AgCl half cells placed in the Tyrode's solution bathing the preparation, 1.0 to 1.2 cm from opposite ends of the atrial coronary-perfused preparations (FIG. 1). The signals were amplified, digitized, and analyzed (Cambridge Electronic Design, Cambridge, England). Effective refractory period (ERP) was measured by delivering premature stimuli after every 10th basic beat at a pacing cycle length (CL) of 500 ms. The diastolic threshold of excitation (DTE) was determined by increasing stimulus intensity in 0.01 mA steps starting from 0.1 mA, until a steady 1:1 activation was achieved. Post-repolarization refractoriness (PRR) was recognized when ERP exceeded an action potential duration at 90% repolarization (APD90) in the ventricle and action potential duration at 70% repolarization (APD70) in atria. Ventricular ERP coincides with APD90, whereas atrial ERP generally coincides with APD70.^4 The electrophysiological measurements were performed following at least 20 min of perfusion with flecainide and 5 min with elevated potassium concentrations. The electrophysiological measurements were obtained at a CL of 500 ms.
# ventricles = experiment: Electrophysiological parameters (APD, ERP, DTE) in ventricles of isolated arterially-perfused canine preparations; details: CL 500 ms
# Method: as §1, §2
# ACh-mediated AF = details: elevation of [K+]0 from 4 to 6-8 mM; isolated pig atria; cited from earlier work
# recent-onset AF = details: flecainide via oral inhalation; patients with recent-onset AF; cited from earlier work
# [3] = [K+]0 from 4 to 6 mM, CL 500 ms
# [4] = after cardioversion by flecainide and elevated [K+]0 (5-8 mM)
# [5] = after cardioversion by flecainide at [K+]0 4 mM
# [6] = flecainide 1.5 μM added at [K+]0 6 mM, CL 500 ms
# [7] = flecainide at [K+]0 4 mM, CL 500 ms
smiles,measurement,setting,value
[K+] [[K^+]0],"AF terminated, % of experiments / atria","[1]; no flecainide, [K+]0 from 4 to 8 mM",100%
same,AF termination (atria terminated / tested),"[1]; no flecainide, [K+]0 increased from 4 to 5 mM",did not terminate and 0/5 and did not cardiovert
same,AF termination (atria terminated / tested),"[1]; no flecainide, [K+]0 increased from 4 to 6 mM",2/6
same,AF termination (atria terminated / tested),"[1]; no flecainide, [K+]0 increased from 4 to 8 mM",4/4
same,Duration of re-induced AF,"[2]; 6 mM [K+]0 alone, in one of two experiments",20 min
same,AF inducible after termination (atria),[2]; 8 mM [K+]0 alone,4/4
same,Duration of re-induced AF episodes,[2]; 8 mM [K+]0 alone,≤ 26 s
same,AF/AT inducibility after termination,[2]; two experiments in which 6 mM [K+]0 alone terminated AF,readily inducible in both
same,DTE in atria,"atria; 6 mM [K+]0 vs 4 mM, CL 500 ms",not significantly affected
same,APD in atria,atria; [3],abbreviated
same,ERP in atria,atria; [3],significantly prolonging
same,Post-repolarization refractoriness (PRR),atria; [3],atrial-selective induction
same,DTE in ventricles,ventricles; 6 mM [K+]0 vs 4 mM,not significantly affected
same,APD in ventricles,ventricles; [K+]0 from 4 to 6 mM,significantly abbreviated
same,ERP in ventricles,ventricles; [K+]0 from 4 to 6 mM,significantly abbreviated
same,AF cardioversion (atria cardioverted / tested),ACh-mediated AF,3/4
O=C(NCC1CCCCN1)c1cc(OCC(F)(F)F)ccc1OCC(F)(F)F (stereo not shown) [flecainide],AF cardioversion (atria cardioverted / tested),[1]; [K+]0 3 mM (simulated hypokalemia),1/6
same,AF cardioversion (atria cardioverted / tested),"[1]; [K+]0 4 mM, ACh 0.5 μM",moderately effective
same,AF cardioversion (atria cardioverted / tested),"[1]; [K+]0 4 mM, ACh 0.5 μM, listed as Flecainide",3/6
same,AF cardioversion (atria cardioverted / tested),[1]; [K+]0 elevated to 5 mM,highly effective
same,AF cardioversion (atria cardioverted / tested),"[1]; [K+]0 elevated to 5 mM, listed as Flecainide",5/5
same,AF cardioversion (atria cardioverted / tested),[1]; [K+]0 elevated to 6 mM,highly effective
same,AF cardioversion (atria cardioverted / tested),"[1]; [K+]0 elevated to 6 mM, listed as Flecainide",5/5
same,AF cardioversion (atria cardioverted / tested),[1]; [K+]0 elevated to 8 mM,highly effective
same,AF cardioversion (atria cardioverted / tested),"[1]; [K+]0 elevated to 8 mM, listed as Flecainide",4/4
same,Time to conversion (time course of flecainide-mediated AF termination),"[1]; flecainide, elevation of [K+]0 from 4 to 8 mM vs 4 mM",abbreviated
same,AF/AT inducibility after cardioversion,[2]; [4],either not inducible or induced for a very brief episode; also recorded: either not inducible or induced for very brief episodes
same,Duration of re-induced AF/AT episodes,[2]; [4],< 100 s
same,"Duration of re-induced AF/AT episodes, in most cases","[2]; after cardioversion by flecainide and elevated [K+]0 (5-8 mM), in most cases",< 10 s
same,AF or atrial tachycardia inducible after cardioversion (preparations),[2]; [5],3/3
same,Duration of re-induced AF/AT episodes,[2]; [5],≤ 300 s
same,Duration of re-induced AF episodes,[2]; flecainide at 3 mM [K+]0 (hypokalemia),≤ 1860 s
same,AF re-induction after termination,"[2]; flecainide at 3 mM [K+]0 (hypokalemia), the only atria terminated",readily re-induced
same,"Depression of excitability, atria vs ventricles",atria; combined flecainide and elevated [K+]0 (6 mM),atrial predominant depression of excitability; also recorded: atrial preferential depression of excitability
same,ERP in atria,atria; [6],much more pronounced in the atria
same,Post-repolarization refractoriness (PRR),atria; [6],atrial predominant development
same,DTE,"atria; flecainide alone at [K+]0 4 mM, CL 500 ms",moderate atrial predominant increase
same,APD in atria,atria; [7],no significant change
same,ERP in atria,atria; [7],substantial lengthening
same,DTE,"atria; flecainide in the presence of 6 mM [K+]0, CL 500 ms",large atrial-selective increase
same,ERP in ventricle,ventricles; flecainide 1.5 μM added at [K+]0 6 mM,prolongation
same,APD in ventricles,ventricles; flecainide at [K+]0 4 mM,no significant change
same,Patients restored to sinus rhythm,recent-onset AF,approximately 50%

# Reference: patent US20260061000A1, “COMPOSITIONS AND METHODS FOR THE TREATMENT OF CARDIAC ARRHYTHMIAS, INCLUDING ATRIAL FIBRILLATION” (Lankenau Institute for Medical Research, priority 2022, published 2026)
